Tests used:
[1] = system: aortic rings of 13 day-old chicken embryos; assay: Chick embryo aortic arch assay; type: cell-based; settings: for sprouting of new vessels versus control: 1 nM peptide
Method: The chick embryo aortic arch assay is an ex vivo angiogenesis assay that was performed as previously described (Isaacs, et al., J. Biol. Chem., 16; 277(33):29936-44, 2002; Auerbach et al., Clin. Chem. 49, 32-40, 2003). Briefly, aortic rings of approximately 0.8 mm in length were prepared from the five aortic arches of 13 day-old chicken embryos (Truslow Farms) and the soft connective tissue of the adventitia layer was carefully removed with tweezers. Each aortic ring was placed in the center of a well in a 48-well plate and covered with 10 μl matrigel (BD Biosciences). After the matrigel solidified, 300 μl of growth factor-free human endothelial-SFM basal growth medium (Invitrogen) containing the proper concentration of the test substances were added to each well. The plates were kept in a humid incubator at 37° C. in 5% CO2 for 24-36 hours. Microvessels sprouting from each aortic ring were photographed in an inverted microscope and the area covered by the newly formed capillaries was estimated by image analysis.

[2] = system: human endothelial cells; assay: Migration assay (ChemoTx chamber); type: cell-based; settings: for increase in migration: 10^−11 M, four hour incubation, p<0.001; for concentration of peak of migration stimulation: lower and higher concentrations less efficient
Method: Cell motility was measured as described (Martinez et al., J. Natl. Cancer Inst., 21; 94(16):1226-37, 2002). Test peptides were placed at various concentrations at the bottom of a ChemoTx chamber (NeuroProbe Inc.). The intermediate membrane was coated with 10 μg/ml fibronectin, and in the upper chamber 5.0×10^5 human endothelial cells were added. After a four hour incubation at 37° C., the membrane was fixed and stained (Protocol Hema3, Biochemical Sciences Inc.). The cells trapped in the porous membrane were photographed through a 25× microscope objective and the number of cells per photographic field was counted.

[3] = system: human endothelial cells; assay: Real-time PCR quantification of gene expression; type: cell-based; settings: for expression of the AM/PAMP gene: addition of 10 nM peptide
Method: Human endothelial cells were cultured in T-75 flasks at a density of 2.5×10^6 cells/well. After the cells were attached to the bottom of the plate, they were treated with 10 nM PAMP in serum-free medium for 24 hours. At the end of this exposure, the cells were washed once with PBS, scraped from the plate and their total RNA was extracted using the RNeasy Mini Kit from Qiagen and reverse transcribed using the SuperScript First-Strand Synthesis system (Invitrogen). Quantification of gene expression was performed by real-time PCR as described (Martinez et al., J. Endocrinol. 176, 95-102, 2003). The PCR reaction was run in an Opticon cycler (MJ Research) using Sybr Green PCR master mix (Applied Biosystems). Thermocycling was performed in a final volume of 25 μl containing 2 μl of cDNA (1:10 dilution) and 400 nM of primers (see below). All targets were amplified in triplicates in the same run as the house-keeping gene, using the following cycle scheme: after initial denaturation of the samples at 95° C. for 2 minutes, 46 cycles of 95° C. for 30 seconds, 60° C. for 30 seconds, and 72° C. for 30 seconds were performed.
Fluorescence was measured in every cycle and mRNA levels were normalized by the 18S RNA values in all samples. A melting curve was run after PCR by increasing temperature from 50° C. to 96° C. (0.5° C. increments). A single peak was obtained for all amplicons, thus confirming the specificity of the reaction.

[4] = system: human microvascular endothelial cells; assay: Proliferation assay (MTT); type: cell-based; settings: three days; for endothelial cell proliferation over the control: 10^−8 M, serum-free medium, p<0.001
Method: The same microvascular endothelial cells were seeded in 96-well plates at a density of 2.0×10^5 cells per well in serum-free medium containing different concentrations of the test peptides. After three days in culture, the number of viable cells per well was estimated by the MTT assay as reported (Iwai et al., Lung Cancer 23, 209-222, 1999). Results are represented as percentage growth over the untreated control.

[5] = system: nude mice; assay: Directed in vivo Angiogenesis Assay (DIVAA), Example 1; settings: for FITC-dextran fluorescence of implants (angiogenesis): mean ± standard deviation of five implants
Method: Silicone tubes (0.15 mm outside diameter, New Age Industries, Southampton, Pa.) are cut to 1 cm in length, and one end of each tube is closed with liquid silicone and dried for 24 hours, then autoclaved. A dilution of test substances is prepared in matrigel in sterile cold Eppendorf tubes. Tubes are filled with a Hamilton syringe. Nude mice are anesthetized, and a pocket is made in the dorsal skin of each animal. The tubes are then implanted with the open end first, and the wounds are then sealed.
After nine to eleven days, the tail veins are injected with FITC-dextran to visualize the blood vessels, and the dye is allowed to distribute throughout the vasculature for about 20 minutes. Mice are then euthanized with CO2 and the skin pockets are removed.
Skin is then dissected, keeping the vessels near the mouth of the tube. The matrigel is then displaced from the tube, incubated at 37° C. in the presence of dispase, then vortexed, centrifuged, and matrigel aliquots are transferred into 96-well plates for fluorescent emission. Fluorescence is read in a fluorimeter.
This example provides a description of use of the Directed in vivo Angiogenesis Assay (DIVAA; see Martinez et al., J. Natl. Cancer Inst. 2002; 94:1226-1237) to measure the angiogenic potential of PAMP in comparison to known angiogenesis factors.
Implants were prepared as follows: Silicone tubes (0.15 mm outside diameter, New Age Industries, Southampton, Pa.) were cut to 1 cm in length. One end of each tube was closed with liquid silicone and dried for 24 hours to allow fumes to diffuse out. Tubes were then autoclaved.
A dilution of test substances was prepared in matrigel in sterile cold Eppendorf tubes. A stock of 25× was prepared to avoid diluting the matrigel too much. Tubes were filled with a Hamilton syringe. All the material was kept sterile and cold. Each tube required 18-20 μl. The matrigel was allowed to solidify at 37° C. for at least 30 minutes.
Nude mice were anesthetized with Ketamine and Xylazine (1:4 ratio), 50 μl per mouse, […]. A pocket was made in the dorsal skin of each animal with scissors. The tubes were implanted with the open end first. The wounds were then sealed with surgical clips. Mice were kept warm until they recovered consciousness. Mice were then maintained for nine to eleven days.
Mice were placed under a heating lamp to dilate their tail veins. Tail veins were injected with 25 mg/ml FITC-dextran (Sigma), 100 μl/mouse. After about 20 minutes, the dye had been distributed. Mice were then euthanized with CO2 and the skin pockets were removed and kept in a PBS-wet cloth.
Skin was then dissected out, keeping the vessels near the mouth of the tube. The tube was placed in an Eppendorf tube containing 300 μdispase (Collaborative Biomedical Products). Then the matrigel was displaced from the tube; these were frozen until they were needed later.
Matrigels were thawed and incubated at 37° C. for one hour, then vortexed, centrifuged, and 100 μl was transferred into a 96-well plate for fluorescent emission (black sides). Excitation for FITC was 485 nm. Emission was 535 nm. Fluorescence was read in a fluorometer.

Adrenomedullin [AM]
sprouting of new vessels versus control [1]: do not promote any significant proliferation over the control
effect on cell migration ([2]; on the concentration range tested): did not modify cell migration significantly
expression of the AM/PAMP gene [3]: indistinguishable from the untreated controls
endothelial cell proliferation over the control [4]: significantly increase proliferation
FITC-dextran fluorescence of implants (angiogenesis) ([5]; 10 pM peptide in matrigel): 1033.2 ± 343 arbitrary fluorescence units
FITC-dextran fluorescence of implants (angiogenesis) ([5]; 1 nM peptide in matrigel): 9590 ± 3164 arbitrary fluorescence units
FITC-dextran fluorescence of implants (angiogenesis) ([5]; 100 nM peptide in matrigel): 13490 ± 2731 arbitrary fluorescence units
FITC-dextran fluorescence of implants (angiogenesis) ([5]; 1 fM peptide in matrigel): 496 ± 275 arbitrary fluorescence units
FITC-dextran fluorescence of implants (angiogenesis) ([5]; 100 fM peptide in matrigel): 787 ± 130 arbitrary fluorescence units

proadrenomedullin N-terminal 20 peptide (ARLDVASEFRKKWNKWALSR; listed as Homo sapiens) [PAMP, 20 amino-acid molecule originating from the post-translational processing of pre-proadrenomedullin; synthetic human, purchased from Bachem]
sprouting of new vessels versus control [1]: larger than the control
concentrations inducing increase of sprouting blood vessels over untreated controls ([1]; chick embryo aortic rings in matrigel, 24-36 hours): ≥ 1 nM
increase in migration [2]: four-fold
concentration of peak of migration stimulation [2]: 10^−11 M
expression of PDGF A mRNA ([3]; 10 nM PAMP, 24 hours): no significant modification
expression of PDGF B mRNA ([3]; 10 nM PAMP, 24 hours): no significant modification
expression of PDGF C mRNA ([3]; 10 nM PAMP, 24 hours): elevating the expression
expression of VEGF mRNA ([3]; 10 nM PAMP, 24 hours): elevating the expression
expression of bFGF mRNA ([3]; 10 nM PAMP, 24 hours): elevating the expression
expression of AM gene mRNA ([3]; 10 nM PAMP, 24 hours, normalized by 18S RNA): about 50 % over basal levels
endothelial cell growth ([4]; at the concentrations tested): did not significantly modify cell growth
FITC-dextran fluorescence of implants (angiogenesis) ([5]; 10 pM peptide in matrigel): 7611.2 ± 3747 arbitrary fluorescence units
FITC-dextran fluorescence of implants (angiogenesis) ([5]; 1 nM peptide in matrigel): 10122.2 ± 3970 arbitrary fluorescence units
FITC-dextran fluorescence of implants (angiogenesis) ([5]; 100 nM peptide in matrigel): 22283.6 ± 6746 arbitrary fluorescence units
FITC-dextran fluorescence of implants (angiogenesis) ([5]; 1 fM peptide in matrigel): 6837.6 ± 1982 arbitrary fluorescence units
FITC-dextran fluorescence of implants (angiogenesis) ([5]; 100 fM peptide in matrigel): 7044 ± 1727 arbitrary fluorescence units
angiogenic potency compared with VEGF or AM ([5]; Table 2, FIG. 1, FIG. 2): significantly more potent
angiogenic potency relative to VEGF and bFGF ([5]; on a molar basis, based on embryonic chick aortic ring assay and DIVAA): roughly one million

vascular endothelial growth factor [VEGF]
sprouting of new vessels versus control [1]: do not promote any significant proliferation over the control
increase in migration [2]: four-fold
cell migration at other concentrations ([2]; concentrations lower than 10^−11 M): also induced a significant increase in cell migration
concentration of peak of migration stimulation [2]: 10^−11 M
expression of the AM/PAMP gene [3]: indistinguishable from the untreated controls
endothelial cell proliferation over the control [4]: significantly increase proliferation
FITC-dextran fluorescence of implants (angiogenesis) ([5]; 10 pM peptide in matrigel): 863.4 ± 437 arbitrary fluorescence units
FITC-dextran fluorescence of implants (angiogenesis) ([5]; 1 nM peptide in matrigel): 8435 ± 3931 arbitrary fluorescence units
FITC-dextran fluorescence of implants (angiogenesis) ([5]; 100 nM peptide in matrigel): 11206 ± 3735 arbitrary fluorescence units
FITC-dextran fluorescence of implants (angiogenesis) ([5]; 1 fM peptide in matrigel): 1563.2 ± 1643 arbitrary fluorescence units
FITC-dextran fluorescence of implants (angiogenesis) ([5]; 100 fM peptide in matrigel): 571 ± 785 arbitrary fluorescence units

Reference: patent publication US7862815B2, “Methods for inhibiting angiogenesis with inhibitors of proadrenomedullin N-terminal 20 peptide (PAMP)” (The United States of America as represented by the …, priority 2002, dated 2011)
